This is an account of results in patent publication US8551470B2, “Use of substance P for mobilization of Mesenchymal stem cells or proliferation of Mesenchymal stem cells and for wound healing or facilitating wound healing” (Korea Institute of Radiological & Medical Sciences, priority 2004, dated 2013).

Experiment [1] has as its system human MSCs. Put plainly: MSC migration and collagen degradation on 3-D collagen gel. The format is cell-based. As to conditions: human MSCs on 3-D collagen gel, Substance-P in bottom dishes (0-100 nM), 72 h. The text has this: In order to determine the mechanism of Substance-P in the mobilization of MSCs, which are strongly attached onto the endosteal surface of bone marrow, Substance-P was first examined to determine whether it stimulates migration of human MSCs cultured on top of the 3-D collagen gel. The type I collagen gel matrix was made within a 12 mm millicell membrane (milipore: 12-μm pore size) according to the manufacturer's specifications (Nitta gelatin, Japan) and coated overnight with type IV collagen (Nitta). The MSCs were plated on top of the collagen gel, and the outer chamber was filled with Substance-P-containing MSCGM (Cambrex Bio Science). Clearance of the collagen gel was monitored by using the phase contrast microscopy (Olympus). At 72 h, the millicell insert and outer dishes were fixed and stained with hematoxylin, and then the culture supernatants were stored for gelatin zymography.

Experiment [2] concerns VEGF and fibronectin. Put plainly: ELISA and Western blot analysis of VEGF and fibronectin in MSC culture supernatants. The format is cell-based, human. The method, then:
ELISA and Western blot analysis of fibronectin and VEGF, which are down stream genes of Tcf/β-catenin, were carried out.
For orientation: ELISA stands for enzyme-linked immunosorbent assay.

The test system of experiment [3] is MMP-1, MMP-2, MMP-9, MT1-MMP, TIMP-1, TIMP-2. The experiment can be described thus: Immunoprecipitation of 35S-methionine labeled MMPs and TIMPs from MSCs. It is filed as cell-based. As to conditions: human MSCs, Substance-P 0-100 nM, 35S-methionine labeling 16 h. The method, then: The effect of Substance-P on the biosynthesis of MMPs (matrix metalloproteinases) and their inhibitors was examined by immunoprecipitation of the culture medium and the cell lysates of MSCs which were labeled with ^35S-methionine. The MSCs were treated with Substance-P and labeled with 50 μCi/ml ^35S-methionine (Amersham) for 16 h. The cell lysate was prepared with a lysis buffer (1% of NP40, 10 mM Tris-HCl, pH 7.4, 150 mM NaCl, 1 mM EDTA, 2 mM PMSF). For immunoprecipitation of the secreted MMP-1, MMP-2, MMP-9, TIMP-1 and TIMP-2, the culture supernatants were incubated with their specific antibodies [anti-MMP-1 (chemicon; Cat #MAB3307, 1:100), anti-MMP-2 (Chemicon; Cat #MAB13405, 1:200), anti-MMP-9 (Calbiochem; Cat #444236, 1:100), anti-TIMP-1 (Calbiochem; Cat #IM32L, 1:250) and anti-TIMP-2 (Calbiochem; Cat #IM11L, 1:250)] for 2 h under constant rotation, and the antibodies were collected by protein-G sepharose-4B (Biorad). The pellet was washed three times with an immunoprecipitation buffer ([…], 50 mM Tris-HCl pH 7.4, 0.2% SDS and 0.5% Nadeoxycholate), once with a high salt buffer (10 mM Tris-HCl, pH 7.4, 0.5 M NaCl), and once with a low salt buffer (10 mM Tris-HCl, pH 7.4). After SDS-PAGE, the gel was soaked in 2 M sodium salicylate, dried, and exposed to the X-ray film for 2 weeks. […]

Experiment [4] concerns cornea wound. Put plainly: Corneal alkali burn rabbit model with intravenous injection of Substance-P. It is filed as in vivo. The text has this:
New Zealand white rabbits weighing 2-3 kg were purchased from Samtako BioKorea. All these animal experiments were approved by Ethical Committee, Korea Institute of Radiological and Medical Sciences, and Chung-Ang University, and conducted in accordance with the ARVO Statement for the Use of Animal in Ophthalmic and Vision Research. For the alkali burn, the rabbit eyes were placed in contact with a 6 mm piece of circular Whatman filter paper soaked in 1N NaOH for 30 seconds. At 1, 3, 5, 7, 10 and 14 day after the alkali burn, rabbit eyes and whole blood were isolated.
Thus, it was examined whether or not Substance-P only can stimulate corneal wound healing. To estimate the effect of Substance-P intravenous injection on acceleration of the wound healing, Substance-P at dosage 6.5 ug/kg was intravenously injected firstly immediately after the injury, and then secondly on 2nd day after the wound. At day 7 after the intravenous injection, cornea recovery was estimated by naked eyes with taking digital picture. […] The intravenous injection of Substance-P strongly expedited the cornea healing as shown by clearance of corneal opaqueness and disappearance of hemorrhagic area, compared with the non-injected control rabbit.
To observe the wound healing degree in the histological level, rabbit eyes were isolated and fixed, and then, H&E staining and immunostaining for CD29 were carried out.

Experiment [5] relates to human MSCs. Put plainly: Viable cell count (triphan blue exclusion) of MSCs after Substance-P treatment. It is filed as cell-based. As to conditions: 3 day. The text has this: At 3 day after the treatment of Substance-P, the triphan blue excluded viable cells were counted.
Experiment [6] relates to MMP-9 and MMP-2. The experiment can be described thus: Gelatin zymography of MSC culture supernatants. The format is cell-based. As to conditions: culture medium of human MSCs on 3-D collagen gel, Substance-P 0-100 nM. The method, then: The culture supernatants were examined for gelatin zymography. The eletrophoresis was performed for the culture supernatant in which sample buffer without mercaptoethanol was added thereto, in 8% SDS-PAGE. The gel was renatured with 2.5% of Triton x-100 in order to remove the SDS, and then was incubated with a developing buffer (50 mM Tris-HCl, pH 7.2 100 mM NaCl, 20 mM CaCl2) at 37° C. overnight, and the gel was stained with Coomassie blue.

The test system of experiment [7] is β-catenin. The experiment can be described thus: Immunofluorescence staining of β-catenin localization in MSCs. As to conditions: human MSCs, 100 nM. The format is cell-based. The method, then:
In order to determine whether Substance-P affects the self-renewal capacity of human MSCs, β-catenin, which is the downstream effecter of the wnt signaling pathway, was examined. MSCs (Cambrex Bio Science) were plated in the density of 1×10^4/well, and incubated with MSCGM (Cambrex Bio Science). After adhesion of the cells, they were treated with Substance-P in each concentration, and incubated for 16 h and 48 h. The MSCs were fixed with 4% of paraformaldehyde and permeabilized with 0.3% of Triton X-100. After blocking nonspecific antigen with 20% normal goat serum which was diluted in phosphate buffer for 1 h, the coverslips were incubated with antibodies against β-catenin (BD Biosciencs; Cat #6010153, 1:100) for 90 min, and then with the FITC-conjugated secondary antibodies for 60 min(Vector). The cells were counterstained with DAPI, and examined by using confocal microscopy (Leica).

Setting [8] is: Substance-P 6.5 ug/kg i.v. twice, vs non-injected.

Substance-P: the “degradation of the collagen gel and MSC migration” value in experiment [1] was “stimulated degradation of the collagen gel and MSC migration in a dose dependent manner”. In addition, in experiment [2] (culture supernatant of Substance-P treated human MSCs), the “fibronectin induction (Western blot)” value is on record as “induced”. The “VEGF induction (ELISA)” value in experiment [2] (culture supernatants of Substance-P treated human MSCs) is recorded as “induced”. For the same substance, in experiment [3], the “biosynthesis of MMP-1, MMP-2, MMP-9, and MT1-MMP” value is recorded as “stimulated in a dose dependent manner”; the “biosynthesis of inhibitors TIMP-1 and TIMP-2” value was “inhibited”. Further, the “corneal regeneration (naked eye, digital picture)” value in experiment [4] (Substance-P 6.5 ug/kg i.v. immediately after injury and on 2nd day, day 7, vs non-injected control) was “much faster”. Further, in experiment [4] (setting [8]), the “CD29 immunostaining of cornea” value was “CD 29+cells of small and spindle shape inside of collagen fibers”; the “wound healing degree in histology (H&E staining)” value is “full thickness coverage of epithelium, well organized vasculature, and ordered array of dense collagen bundles”. Besides, the “healing rate (histological observation during the entire period)” value in experiment [4] (Substance-P i.v. vs control group) was “speeded up the healing rate faster than the control group”. Further, in experiment [5] (1 nM Substance-P), the “number of viable cells compared with the control group” value amounted to 1.7 times. The “number of viable cells compared with the control group” value in experiment [5] (10 nM Substance-P) worked out at 2.1 times. Moreover, in experiment [5] (100 nM Substance-P), the “number of viable cells compared with the control group” value was found to be 2.2 times. Further, the “MMP-9 and MMP-2 activities (gelatin zymography)” value in experiment [6] was “strong induction of MMP-9 and MMP-2 activities”. Moreover, in experiment [7] (16 h after Substance-P treatment), the “nuclear localization of β-catenin” value is on record as “only a small number of MSCs at 100 nM showed nuclear localization of β-catenin”. Also, in experiment [7] (48 h after Substance-P treatment), the “nuclear translocation of β-catenin” value is on record as “all the MSCs showed nuclear translocation of β-catenin”.
